Here are results for 14 compounds from patent US11771709B2, “ALK protein degradation agent and anti-tumor application thereof” (ShanghaiTech University, priority 2017, dated 2023).

For assay [1], the system named is NCI-H3122 (EML4-ALK, V1) cells. The assay is described as follows: Growth inhibition IC50 in lung cancer H3122 cells (Cell Titer Blue / Cell Titer Glo). The following applies: Homo sapiens, NCI-H3122, H3122 cells, CTB (Cell Titer Blue).
Description: SR (NPM-ALK) and NCI-H2228 (EML4-ALK, V3) cells were purchased from ATCC. […] All Cells were cultured in RPMI1640 medium with 10% FBS and Penicillin-Streptomycin in 37° C. incubator with 5% CO2.
Cells were seeded at specific density in 96 well plates one day before treatment. […] Viable cells were measured via CCK8 reagent and IC50s were calculated via Prism Graphad. Experiments were repeated at least three times.
The target in assay [2] is T1, ALK protein in SR (NPM-ALK) cells (Homo sapiens, UniProt Q9UM73).
T1 construct: NPM (nucleophosmin, NPM1, P06748) fusion partner; host or cells: SR (ALCL) cells; the other entry of the earlier key: NPM1 (P06748, Nucleophosmin)
Put plainly: Western blot of ALK protein level (degradation, DC50), ALK phosphorylation and downstream signaling in SR cells. The class given is cell-based. The following applies: for DC50: ALK protein degradation in SR cells.
Description: Cancer cells were seeded in 1 ml RPMI1640 medium in 24-well plate at the density of 3×10^5 or 1.5×10^5 cells/ml. […] Then cells were washed twice with PBS and lyzed in RIPA lysis buffer with Halt Proteinase and Phosphotase inhibitor. Equal amount of proteins were loaded to run SDS-PAGE gels after denature. The gels were blotted to PVDF membrane. After incubating with first and secondary antibodies, the images were developed using SuperSignal West Pico Chemiluminescent Substrate.
DC50 (concentration required to degrade protein by half) were calculated based on the intensity from western blot, and data were analyzed via Prism GraphPad with non-linear regression.

In assay [3] the target is T2, ALK protein in H3122 (EML4-ALK) cells (Homo sapiens, UniProt Q9UM73).
T2 construct: EML4 (Echinoderm microtubule-associated protein-like 4, Q9HC35) fusion partner, variant 1; host or cells: NCI-H3122 lung adenocarcinoma cells; the other entry of the earlier key: EML4 (Q9HC35, Echinoderm microtubule-associated protein-like 4)
Put plainly: Western blot of ALK protein level (degradation, DC50), ALK phosphorylation and downstream signaling in H3122 cells. The class given is cell-based. The following applies: ALK protein degradation in H3122 cells.

The subject of another assay is SR (NPM-ALK) cells. The assay is described as follows: Growth inhibition IC50 in ALCL SR cells (CCK8/WST, 72 hours). The class given is cell-based. The following applies: 72 h, SR cells, WST; Brigatinib-based PROTAD molecules (Table 3).

T1 sequence (Q9UM73 with tags, fused parts or gaps): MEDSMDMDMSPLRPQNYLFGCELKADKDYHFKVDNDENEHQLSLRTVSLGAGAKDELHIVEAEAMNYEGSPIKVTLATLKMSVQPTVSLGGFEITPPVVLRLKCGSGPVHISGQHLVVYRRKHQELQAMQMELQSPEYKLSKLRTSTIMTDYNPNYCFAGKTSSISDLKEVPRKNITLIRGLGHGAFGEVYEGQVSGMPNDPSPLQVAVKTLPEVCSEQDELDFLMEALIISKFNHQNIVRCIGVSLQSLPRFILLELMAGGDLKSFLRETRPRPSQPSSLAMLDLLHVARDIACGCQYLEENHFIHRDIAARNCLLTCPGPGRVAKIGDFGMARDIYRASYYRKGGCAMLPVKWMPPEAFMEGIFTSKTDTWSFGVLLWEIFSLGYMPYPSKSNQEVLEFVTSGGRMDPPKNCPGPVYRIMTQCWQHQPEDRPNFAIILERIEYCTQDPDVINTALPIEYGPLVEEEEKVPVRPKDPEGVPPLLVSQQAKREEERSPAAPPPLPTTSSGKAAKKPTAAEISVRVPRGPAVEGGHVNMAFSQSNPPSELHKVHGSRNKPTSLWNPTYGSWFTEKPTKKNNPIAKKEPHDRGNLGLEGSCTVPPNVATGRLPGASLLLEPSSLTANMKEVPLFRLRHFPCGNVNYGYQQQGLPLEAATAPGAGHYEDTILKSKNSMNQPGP
T2 sequence (Q9UM73 with tags, fused parts or gaps): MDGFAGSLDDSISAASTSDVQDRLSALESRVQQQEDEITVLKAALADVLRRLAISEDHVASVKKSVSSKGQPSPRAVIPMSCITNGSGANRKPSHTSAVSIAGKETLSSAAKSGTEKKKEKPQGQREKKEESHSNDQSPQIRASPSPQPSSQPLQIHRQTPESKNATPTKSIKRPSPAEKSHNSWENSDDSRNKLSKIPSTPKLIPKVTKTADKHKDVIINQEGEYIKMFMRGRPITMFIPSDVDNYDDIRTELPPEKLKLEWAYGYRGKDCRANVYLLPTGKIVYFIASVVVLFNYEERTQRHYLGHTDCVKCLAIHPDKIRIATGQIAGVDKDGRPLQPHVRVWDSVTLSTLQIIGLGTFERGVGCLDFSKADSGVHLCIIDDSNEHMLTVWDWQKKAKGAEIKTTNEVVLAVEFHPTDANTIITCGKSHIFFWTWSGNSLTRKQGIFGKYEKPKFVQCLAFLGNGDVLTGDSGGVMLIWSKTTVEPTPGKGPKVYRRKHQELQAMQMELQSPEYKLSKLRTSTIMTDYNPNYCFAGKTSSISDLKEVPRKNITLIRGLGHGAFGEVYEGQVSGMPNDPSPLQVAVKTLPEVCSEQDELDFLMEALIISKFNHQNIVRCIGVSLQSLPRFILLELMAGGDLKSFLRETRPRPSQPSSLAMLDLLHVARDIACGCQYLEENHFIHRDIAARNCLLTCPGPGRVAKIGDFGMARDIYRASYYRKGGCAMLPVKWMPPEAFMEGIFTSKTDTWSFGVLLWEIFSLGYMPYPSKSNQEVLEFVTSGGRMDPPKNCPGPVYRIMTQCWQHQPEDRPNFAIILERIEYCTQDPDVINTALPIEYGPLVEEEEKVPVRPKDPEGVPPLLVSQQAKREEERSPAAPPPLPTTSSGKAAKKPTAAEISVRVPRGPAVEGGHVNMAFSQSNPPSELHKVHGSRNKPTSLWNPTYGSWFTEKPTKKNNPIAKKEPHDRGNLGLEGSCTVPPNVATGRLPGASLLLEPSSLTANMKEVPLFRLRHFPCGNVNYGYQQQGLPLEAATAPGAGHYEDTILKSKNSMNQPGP

The compound `Cc1cc(Nc2ncc(Cl)c(Nc3ccccc3S(=O)(=O)C(C)C)n2)c(OC(C)C)cc1C1CCN(C(=O)CCCCCCCCCC(=O)N[C@H](C(=O)N2C[C@H](O)C[C@H]2C(=O)NCc2ccc(-c3scnc3C)cc2)C(C)(C)C)CC1` [SIAIS074026, (2S,4R)-1-((S)-2-(11-(4-(4-((5-chloro-4-((2-(isopropylsulfonyl)phenyl)amino)pyrimidin-2-yl)amino)-5-isopropoxy-2-methylphenyl)piperidin-1-yl)-11-oxoundecanamido)-3,3-dimethylbutanoyl)-4-hydroxy-N-(4-(4-methylthiazol-5-yl)benzyl)pyrrolidine-2-carboxamide] gave an IC50 in assay [1] of 2560 nM.
Still for that read-out and setting: as for `Cc1cc(Nc2ncc(Cl)c(Nc3ccccc3S(=O)(=O)C(C)C)n2)c(OC(C)C)cc1C1CCN(C(=O)CCNc2cccc3c2C(=O)N(C2CCC(=O)NC2=O)C3=O)CC1` (stereo not shown) [SIAIS151034, 4-((3-(4-(4-((5-chloro-4-((2-(isopropylsulfonyl)phenyl)amino)pyrimidin-2-yl)amino)-5-isopropoxy-2-methylphenyl)piperidin-1-yl)-3-oxopropyl)amino)-2-(2,6-dioxopiperidin-3-yl)isoindoline-1,3-dione], the figure is 14 nM; as for `Cc1cc(Nc2ncc(Cl)c(Nc3ccccc3S(=O)(=O)C(C)C)n2)c(OC(C)C)cc1C1CCN(C(=O)CCCCNc2cccc3c2C(=O)N(C2CCC(=O)NC2=O)C3=O)CC1` (stereo not shown) [SIAIS151036, 4-((5-(4-(4-((5-chloro-4-((2-(isopropylsulfonyl)phenyl)amino)pyrimidin-2-yl)amino)-5-isopropoxy-2-methylphenyl)piperidin-1-yl)-5-oxopentyl)amino)-2-(2,6-dioxopiperidin-3-yl)isoindoline-1,3-dione], 31 nM; as for `Cc1cc(Nc2ncc(Cl)c(Nc3ccccc3S(=O)(=O)C(C)C)n2)c(OC(C)C)cc1C1CCN(C(=O)CCOCCOCCC(=O)N[C@H](C(=O)N2C[C@H](O)C[C@H]2C(=O)NCc2ccc(-c3scnc3C)cc2)C(C)(C)C)CC1` [SIAIS151038, (2S,4R)-1-((S)-2-(3-(2-(3-(4-(4-((5-chloro-4-((2-(isopropylsulfonyl)phenyl)amino)pyrimidin-2-yl)amino)-5-isopropoxy-2-methylphenyl)piperidin-1-yl)-3-oxopropoxy)ethoxy)propanamido)-3,3-dimethylbutanoyl)-4-hydroxy-N-(4-(4-methylthiazol-5-yl)benzyl)pyrrolidine-2-carboxamide], 393 nM.
The same measure, in the same setting: as for `Cc1cc(Nc2ncc(Cl)c(Nc3ccccc3S(=O)(=O)C(C)C)n2)c(OC(C)C)cc1C1CCN(C(=O)CCOCCOCCOCCC(=O)N[C@H](C(=O)N2C[C@H](O)C[C@H]2C(=O)NCc2ccc(-c3scnc3C)cc2)C(C)(C)C)CC1` [SIAIS151039, (2S,4R)-1-((S)-2-(tert-butyl)-16-(4-(4-((5-chloro-4-((2-(isopropylsulfonyl)phenyl)amino)pyrimidin-2-yl)amino)-5-isopropoxy-2-methylphenyl)piperidin-1-yl)-4,16-dioxo-7,10,13-trioxa-3-azahexadecanoyl)-4-hydroxy-N-(4-(4-methylthiazol-5-yl)benzyl)pyrrolidine-2-carboxamide], the figure is 441 nM; as for `Cc1cc(Nc2ncc(Cl)c(Nc3ccccc3S(=O)(=O)C(C)C)n2)c(OC(C)C)cc1C1CCN(C(=O)CCOCCOCCOCCOCCC(=O)N[C@H](C(=O)N2C[C@H](O)C[C@H]2C(=O)NCc2ccc(-c3scnc3C)cc2)C(C)(C)C)CC1` [SIAIS151040, (2S,4R)-1-((S)-2-(tert-butyl)-19-(4-(4-((5-chloro-4-((2-(isopropylsulfonyl)phenyl)amino)pyrimidin-2-yl)amino)-5-isopropoxy-2-methylphenyl)piperidin-1-yl)-4,19-dioxo-7,10,13,16-tetraoxa-3-azanonadecanoyl)-4-hydroxy-N-(4-(4-methylthiazol-5-yl)benzyl)pyrrolidine-2-carboxamide], 141 nM.
Turning to `COc1cc(N2CCC(NC(=O)CCCCCC(=O)N[C@H](C(=O)N3C[C@H](O)C[C@H]3C(=O)NCc3ccc(-c4scnc4C)cc3)C(C)(C)C)CC2)ccc1Nc1ncc(Cl)c(Nc2ccccc2P(C)(C)=O)n1` [SIAIS164146, N1-(1-(4-((5-chloro-4-((2-(dimethylphosphoryl)phenyl)amino)pyrimidin-2-yl)amino)-3-methoxyphenyl)piperidin-4-yl)-N7-((S)-1-((2S,4R)-4-hydroxy-2-((4-(4-methylthiazol-5-yl)benzyl)carbamoyl)pyrrolidin-1-yl)-3,3-dimethyl-1-oxobutan-2-yl)heptanediamide], the DC50 in assay [2] lay in the range of 1 to 10 nM; in assay [3], 0.1 to 10 nM. The same compound came in with an IC50 in the assay on SR (NPM-ALK) cells of 3.6 ± 2.1 nM.
In the case of `COc1cc(N2CCC(N3CCN(C(=O)CCC(=O)NCCNc4cccc5c4C(=O)N(C4CCC(=O)NC4=O)C5=O)CC3)CC2)ccc1Nc1ncc(Cl)c(Nc2ccccc2P(C)(C)=O)n1` (stereo not shown) [SIAIS164152, 4-(4-(1-(4-((5-chloro-4-((2-(dimethylphosphoryl)phenyl)amino)pyrimidin-2-yl)amino)-3-methoxyphenyl)piperidin-4-yl)piperazin-1-yl)-N-(2-((2-(2,6-dioxopiperidin-3-yl)-1,3-dioxoisoindolin-4-yl)amino)ethyl)-4-oxobutanamide], the DC50 fell in the range of 0.5 to 10 nM in assay [2] and 10 to 50 nM in assay [3]. In the assay on SR (NPM-ALK) cells, the half-inhibitory concentration (IC50) worked out at 7.9 ± 3.5 nM.
Turning to `COc1cc(N2CCC(N3CCN(C(=O)CCCc4cn(CCCC(=O)N[C@H](C(=O)N5C[C@H](O)C[C@H]5C(=O)NCc5ccc(-c6scnc6C)cc5)C(C)(C)C)nn4)CC3)CC2)ccc1Nc1ncc(Cl)c(Nc2ccccc2P(C)(C)=O)n1` [SIAIS164153, (2S,4R)-1-((S)-2-(4-(4-(4-(4-(1-(4-((5-chloro-4-((2-(dimethylphosphoryl)phenyl)amino)pyrimidin-2-yl)amino)-3-methoxyphenyl)piperidin-4-yl)piperazin-1-yl)-4-oxobutyl)-1H-1,2,3-triazol-1-yl)butanamido)-3,3-dimethylbutanoyl)-4-hydroxy-N-(4-(4-methylthiazol-5-yl)benzyl)pyrrolidine-2-carboxamide], the DC50 lay in the range of 100 to 500 nM in assay [2] and 1 to 10 nM in assay [3]. Further, in assay [2] (SR cells, western blot), the “concentration at which ALK proteins were degraded” value is given as 1 nM. Moreover, in the assay on SR (NPM-ALK) cells, the half-maximal inhibitory concentration (IC50) worked out at 55.9 ± 19.9 nM.
For `COc1cc(N2CCN(C(=O)CNc3cccc4c3C(=O)N(C3CCC(=O)NC3=O)C4=O)CC2)ccc1Nc1ncc(Cl)c(Nc2ccccc2P(C)(C)=O)n1` (stereo not shown) [SIAIS1197055, 4-((2-(4-(4-((5-chloro-4-((2-(dimethylphosphoryl)phenyl)amino)pyrimidin-2-yl)amino)-3-methoxyphenyl)piperazin-1-yl)-2-oxoethyl)amino)-2-(2,6-dioxopiperidin-3-yl)isoindoline-1,3-dione], the half-maximal degradation concentration (DC50) in assay [2] was 1 to 10 nM; in assay [3], 1 to 50 nM. The same compound gave a concentration for half-maximal inhibition (IC50) in the assay with SR (NPM-ALK) cells of around 1 nM.
On to `COc1cc(N2CCN(C(=O)CCCCCCNc3cccc4c3C(=O)N(C3CCC(=O)NC3=O)C4=O)CC2)ccc1Nc1ncc(Cl)c(Nc2ccccc2P(C)(C)=O)n1` (stereo not shown) [SIAIS1197077, 4-((7-(4-(4-((5-chloro-4-((2-(dimethylphosphoryl)phenyl)amino)pyrimidin-2-yl)amino)-3-methoxyphenyl)piperazin-1-yl)-7-oxoheptyl)amino)-2-(2,6-dioxopiperidin-3-yl)isoindoline-1,3-dione], for which the half-maximal degradation concentration (DC50) in assay [2] lay within 0.1 to 0.5 nM; in assay [3] it was 50 to 500 nM. For the same compound, 7.9 ± 4.9 nM corresponded to half-maximal inhibition in the assay on SR (NPM-ALK) cells (IC50).
For `COc1cc(N2CCN(C(=O)CCCCCCC(=O)N[C@H](C(=O)N3C[C@H](O)C[C@H]3C(=O)NCc3ccc(-c4scnc4C)cc3)C(C)(C)C)CC2)ccc1Nc1ncc(Cl)c(Nc2ccccc2P(C)(C)=O)n1` [SIAIS1197153, (2S,4R)-1-((S)-2-(8-(4-(4-((5-chloro-4-((2-(dimethylphosphoryl)phenyl)amino)pyrimidin-2-yl)amino)-3-methoxyphenyl)piperazin-1-yl)-8-oxooctanamido)-3,3-dimethylbutanoyl)-4-hydroxy-N-(4-(4-methylthiazol-5-yl)benzyl)pyrrolidine-2-carboxamide] the same measures were 1 to 50 nM, 1 to 50 nM and 4.6 ± 1.9 nM.
In the same order, the values of `COc1cc(N2CCN(C(=O)CCCCCCCC(=O)N[C@H](C(=O)N3C[C@H](O)C[C@H]3C(=O)NCc3ccc(-c4scnc4C)cc3)C(C)(C)C)CC2)ccc1Nc1ncc(Cl)c(Nc2ccccc2P(C)(C)=O)n1` [SIAIS1197155, (2S,4R)-1-((S)-2-(9-(4-(4-((5-chloro-4-((2-(dimethylphosphoryl)phenyl)amino)pyrimidin-2-yl)amino)-3-methoxyphenyl)piperazin-1-yl)-9-oxononanamido)-3,3-dimethylbutanoyl)-4-hydroxy-N-(4-(4-methylthiazol-5-yl)benzyl)pyrrolidine-2-carboxamide] are 1 to 10 nM, 1 to 50 nM and 3.4 ± 0.5 nM.
In the same order, the values of `COc1cc(N2CCN(C(=O)CCCCCCCCC(=O)N[C@H](C(=O)N3C[C@H](O)C[C@H]3C(=O)NCc3ccc(-c4scnc4C)cc3)C(C)(C)C)CC2)ccc1Nc1ncc(Cl)c(Nc2ccccc2P(C)(C)=O)n1` [SIAIS1197157, (2S,4R)-1-((S)-2-(10-(4-(4-((5-chloro-4-((2-(dimethylphosphoryl)phenyl)amino)pyrimidin-2-yl)amino)-3-methoxyphenyl)piperazin-1-yl)-10-oxodecanamido)-3,3-dimethylbutanoyl)-4-hydroxy-N-(4-(4-methylthiazol-5-yl)benzyl)pyrrolidine-2-carboxamide] are 1 to 10 nM, 1 to 50 nM and 3.1 ± 1.3 nM.
